Experimental data reported in ChEMBL document CHEMBL4041538, “Bioreductively activatable prodrug conjugates of phenstatin designed to target tumor hypoxia” (Bioorg Med Chem Lett, 2017).

How the values were obtained:
Bos taurus = species on record: Bos taurus; assay: Inhibition of [3H]colchicine binding to bovine brain tubulin at 5 uM after 10 mins by scintillation counting method relative to control
[1] = Inhibition of bovine brain tubulin polymerization preincubated for 15 mins followed by GTP addition measured after 20 mins by Spectrophotometric method; design: species or system Bos taurus
[2] = Drug metabolism in pH 7.4 PBS assessed as compound hydrolysis after 24 hrs by HPLC method; assay type: physicochemical; settings: read-out: Drug metabolism
[3] = target: T1, NADPH--cytochrome P450 reductase (P450 oxidoreductase) (Rattus norvegicus, UniProt P00388); assay: Drug metabolism in pH 7.4 PBS assessed as rat P450 oxidoreductase-mediated compound hydrolysis preincubated for 20 mins followed by protocatechuate 3,4-dioxygenase addition to create anoxic condition and subsequent addition of P450 oxidoreductase in presence of NADPH after 24 hrs by HPLC method; assay type: ADME; settings: rat P450 oxidoreductase with NADPH in PBS, read-out: Drug metabolism
T1 sequence (P00388 whole entry): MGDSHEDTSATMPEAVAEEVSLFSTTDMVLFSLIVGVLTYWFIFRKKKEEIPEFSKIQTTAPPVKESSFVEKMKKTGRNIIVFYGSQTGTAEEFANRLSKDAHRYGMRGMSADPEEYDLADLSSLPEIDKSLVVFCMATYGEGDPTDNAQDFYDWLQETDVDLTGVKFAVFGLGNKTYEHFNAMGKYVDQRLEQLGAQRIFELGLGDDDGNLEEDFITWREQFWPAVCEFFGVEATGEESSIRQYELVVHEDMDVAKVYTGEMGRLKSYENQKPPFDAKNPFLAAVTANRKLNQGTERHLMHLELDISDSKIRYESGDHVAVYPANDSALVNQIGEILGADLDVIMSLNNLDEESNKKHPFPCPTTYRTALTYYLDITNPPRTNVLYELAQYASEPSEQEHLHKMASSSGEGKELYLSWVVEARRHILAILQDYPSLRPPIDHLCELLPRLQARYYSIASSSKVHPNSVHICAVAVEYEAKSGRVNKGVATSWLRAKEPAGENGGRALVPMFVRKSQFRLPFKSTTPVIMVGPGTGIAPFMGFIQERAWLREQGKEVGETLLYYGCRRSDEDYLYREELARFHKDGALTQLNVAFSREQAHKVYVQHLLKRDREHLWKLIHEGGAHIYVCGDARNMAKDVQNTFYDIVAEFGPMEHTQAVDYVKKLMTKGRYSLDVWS

Structure (SMILES) | inhibition (Bos taurus) [%] | IC50 [1] [µM] | degraded at 24 h [2] [%] | metabolised at 24 h [3] [%]
COc1ccc(C(=O)c2cc(OC)c(OC)c(OC)c2)cc1OCc1ccc([N+](=O)[O-])o1 | 17 | 15 |  | 
COc1ccc(C(=O)c2cc(OC)c(OC)c(OC)c2)cc1OCc1ccc([N+](=O)[O-])cc1 | 11 | > 20 |  | 
COc1ccc(/C=C\c2cc(OC)c(OC)c(OC)c2)cc1O [COMBRETASTATIN A4] |  | 0.73 |  | 
COc1ccc(C(=O)c2cc(OC)c(OC)c(OC)c2)cc1OC(C)(C)c1ccc([N+](=O)[O-])s1 | 16 | 9 | 0 | 100
COc1ccc(C(=O)c2cc(OC)c(OC)c(OC)c2)cc1OC(C)c1ccc([N+](=O)[O-])o1 (stereo unspecified) | 16 | 12 |  | 
COc1ccc(C(=O)c2cc(OC)c(OC)c(OC)c2)cc1O [PHENSTATIN] | 85 | 1 |  | 
COc1ccc(C(=O)c2cc(OC)c(OC)c(OC)c2)cc1OCc1cnc([N+](=O)[O-])n1C | 7.1 | > 20 |  | 
COc1ccc(C(=O)c2cc(OC)c(OC)c(OC)c2)cc1OCc1ccc([N+](=O)[O-])s1 | 19 | 16 |  | 
COc1ccc(C(=O)c2cc(OC)c(OC)c(OC)c2)cc1OC(C)c1ccc([N+](=O)[O-])s1 (stereo unspecified) | 15 | > 20 |  | 

The remaining lines, values ahead:

inhibition (Bos taurus) [%] | IC50 [1] [µM] | degraded at 24 h [2] [%] | metabolised at 24 h [3] [%] | Structure (SMILES)
13 | > 20 | 0 | 100 | COc1ccc(C(=O)c2cc(OC)c(OC)c(OC)c2)cc1OC(C)(C)c1ccc([N+](=O)[O-])o1
8.8 | > 20 | 0 | 0 | COc1ccc(C(=O)c2cc(OC)c(OC)c(OC)c2)cc1OC(C)(C)c1ccc([N+](=O)[O-])cc1
11 | > 20 |  |  | COc1ccc(C(=O)c2cc(OC)c(OC)c(OC)c2)cc1OC(C)c1cnc([N+](=O)[O-])n1C (stereo unspecified)
5.8 | > 20 |  |  | COc1ccc(C(=O)c2cc(OC)c(OC)c(OC)c2)cc1OC(C)c1ccc([N+](=O)[O-])cc1 (stereo unspecified)
